Test results as given in patent publication EP4656642A1, “ESTROGEN RECEPTOR PROTEOLYSIS TARGETING CHIMERA COMPOUND AND USE THEREOF” (GAN & LEE PHARM CO., LTD, priority 2023, dated 2024).
pIC50: −log10 of the molar value.

Assays:
Format in all cases: cell-based
[1] = system: MCF-7 cells; assay: Inhibition of cell proliferation of MCF-7 cells (CCK-8, 9 days); settings: treated for 9 days, CCK-8 kit (Table 6)
Source text: Test Example 4 Inhibitory effect of the PROTAC compounds disclosed in the present disclosure on cell proliferation of MCF-7 cells
The complete medium required for MCF-7 cells (source ATCC) was DMEM (gibco, Product number :11995-065) basal medium containing 10% fetal bovine serum. MCF-7 cells were inoculated in 96-well plates at a density of 800 cells/well, and different concentrations of the PROTAC compounds 1-55 provided in the embodiments of the present disclosure and a positive control sample ARV-471 (source: Innochem) were prepared to treat cells, and cells were treated at 37°C in a cell culture incubator with 5% CO2 for 9 days. Cell viability was detected using a CCK -8 kit (Beyotime , Product number: C0040) according to the manufacturer's instruction. […] Table 5 IC50 values for inhibition of the proliferation of MCF-7 cells by the PROTAC compounds of the present disclosure and positive control sample

[2] = molecular target: T1, ERα (Homo sapiens, UniProt P03372); assay: Degradation of ERα in MCF-7 cells (immunoblotting, 4 h)
T1 sequence (P03372 1-595): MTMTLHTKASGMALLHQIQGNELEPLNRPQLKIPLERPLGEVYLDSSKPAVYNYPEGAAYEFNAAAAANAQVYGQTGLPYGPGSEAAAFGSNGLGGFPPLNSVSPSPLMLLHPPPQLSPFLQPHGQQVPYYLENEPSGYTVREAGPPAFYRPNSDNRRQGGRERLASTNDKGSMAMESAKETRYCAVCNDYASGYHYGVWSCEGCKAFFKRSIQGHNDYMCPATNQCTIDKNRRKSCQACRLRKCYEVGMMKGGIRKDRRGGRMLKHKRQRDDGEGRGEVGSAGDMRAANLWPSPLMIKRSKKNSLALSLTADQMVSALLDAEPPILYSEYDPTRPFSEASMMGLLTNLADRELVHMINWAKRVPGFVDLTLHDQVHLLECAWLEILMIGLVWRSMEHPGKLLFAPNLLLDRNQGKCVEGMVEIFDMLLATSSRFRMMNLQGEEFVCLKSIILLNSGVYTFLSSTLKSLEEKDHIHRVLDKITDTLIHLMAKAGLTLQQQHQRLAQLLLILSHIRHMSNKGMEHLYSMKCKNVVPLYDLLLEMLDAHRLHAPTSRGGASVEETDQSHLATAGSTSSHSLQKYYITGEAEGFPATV
Protocol: MCF-7 cells were inoculated into 6-well plates at a density of 3×10^5 cells/well and cultured at 37°C, 5% CO2 for 24h. After the cells were attached to the wall, 1µL of the compound solution in dimethyl sulfoxide (final concentration 0.15-1000nM) was added and continued to be cultured in incubator at 37°C with 5% CO2 for 4 h. After 4 h, the culture medium was discarded, and each well was washed once with pre-cooled 1×DPBS, and the cells were lysed with a mixture of 50 µL of RIPA lysis buffer (P0013B, Beyotime) and 1× protease inhibitor (P1005, Beyotime), and then centrifuged at 14,000 g for 30 min at 4°C after resting on ice for 20 min, and the supernatant was carefully collected to detect the protein level of ERα by protein immunoblotting (Immunoblotting).
Protein immunoblotting: The total protein concentration in the collected cell lysate supernatant was determined by BCA Protein Concentration Assay Kit (Enhanced) (P0009, Beyotime). According to the total protein concentration detected by BCA, the protein was adjusted to 1 µg/µL with RIPA lysis buffer and 5× SDS-PAGE protein loading buffer (MB01015, Genscript), and the protein was denatured by water bath at 95°C for 5 min, and then centrifuged after denaturation to enrich the condensate on the wall of the centrifuge tubes as a loading sample. […] At the end of electrophoresis, the proteins in the SDS-PAGE gels were transferred to a PVDF membrane at a constant voltage of 100 V for 60 min. After that, the PVDF membrane corresponding to ERα protein and internal reference protein was cut out and incubated in 1×QµickBlock blocking solution (P0252, Beyotime) for 30 min at room temperature on a shaker. […] Protein profiles were analyzed by Image Studio Lite analysis software for grayscale values. Grayscale correction values were calculated for each sample using the Formula: corrected grayscale value = grayscale value of the target protein /corresponding grayscale value of the internal reference. The degradation rate for the compounds was then calculated by comparing the corrected grayscale values of the compound group to the control group. Table 7 Degradation rate (%) of ERα by the PROTAC compounds of the present disclosure and positive control sample in MCF-7 cells

[3] = molecular target: T1, ERα; assay: Degradation of ERα in T-47D cells (immunoblotting, 4 h); set-up: host or cells: T-47D
Protocol: T-47D cells were inoculated into 6-well plates at a density of 3×10^5 cells/well and cultured at 37°C, 5% CO2 for 24 h. After the cells were attached to the wall, 1µL of the compound solution in dimethyl sulfoxide (final concentration 0.15-1000 nM) was added and continued to be cultured in the incubator with 5% CO2 at 37°C for 4 h. After 4 h, the culture medium was discarded, and each well was washed once with pre-cooled 1×DPBS, and the cells were lysed with a mixture of 50 µL of RIPA lysis buffer (P0013B, Beyotime) and 1× protease inhibitor (P1005, Beyotime), and then centrifuged at 14,000 g for 30 min at 4°C after resting on ice for 20 min, and the supernatant was carefully collected to detect the protein level of ERα by protein immunoblotting (Immunoblotting).

Row | SMILES | pIC50 [1] | Degradation rate (%) of ERα in MCF-7 cells ([2]; 1nM compound) | Degradation rate (%) of ERα in MCF-7 cells ([2]; 10nM compound) | Degradation rate (%) of ERα in T-47D cells ([3]; 1nM compound) | Degradation rate (%) of ERα in T-47D cells ([3]; 10nM compound)
1 | O=C1CCC(N2Cc3c(ccc4c3OCC43CCN(CC(=O)N4CCC(C#Cc5ccc([C@@H]6c7ccc(O)cc7CC[C@@H]6c6ccccc6)cc5)CC4)CC3)C2=O)C(=O)N1 (stereo partly drawn) [A79] | 8.59 | 45% | 47% | 40% | 60%
2 | O=C1CCC(N2Cc3c(ccc4c3OCC43CCN(C4CC5(CCC6(CC5)CN(c5ccc([C@@H]7c8ccc(O)cc8CC[C@@H]7c7ccccc7)cc5)C6)C4)CC3)C2=O)C(=O)N1 (stereo partly drawn) [A81] | 7.65 | -39% | 20% | -33% | 45%
3 | O=C1CCC(N2Cc3cc4c(cc3C2=O)OC2(CC4)CN(C3CCN(C(=O)C4CCN(c5ccc([C@@H]6c7ccc(O)cc7CC[C@@H]6c6ccccc6)cc5)CC4)CC3)C2)C(=O)N1 (stereo partly drawn) [A82] | 6.35 | 16% | 51% | 51% | 78%
4 | O=C1CCC(N2Cc3c(ccc4c3OCC43CCN(C(=O)C4CCC5(CC4)CN(c4ccc([C@@H]6c7ccc(O)cc7CC[C@@H]6c6ccccc6)cc4)C5)CC3)C2=O)C(=O)N1 (stereo partly drawn) [A83] | 7.41 | 23% | 46% | 40% | 62%
5 | O=C1CCC(N2Cc3c(ccc4c3OCC43CCN(C4CCN(C(=O)C5CCC6(CC5)CN(c5ccc([C@@H]7c8ccc(O)cc8CC[C@@H]7c7ccccc7)cc5)C6)CC4)CC3)C2=O)C(=O)N1 (stereo partly drawn) [A84] | 8.28 | 63% | 74% | 56% | 77%
6 | C[C@@H]1Cc2c([nH]c3ccccc23)[C@@H](c2c(F)cc(N3CCC4(CCN(C(=O)CN5CCC6(CC5)COc5c6ccc6c5CN(C5CCC(=O)NC5=O)C6=O)CC4)CC3)cc2F)N1CC(F)F (stereo partly drawn) [A118] | 7.79 | -7% | 55% | 38% | 79%
7 | C[C@@H]1Cc2c([nH]c3ccccc23)[C@@H](c2c(F)cc(N3CCC4(CCN(C(=O)CN5CCC6(CC5)COc5c6ccc6c5CN(C5CCC(=O)NC5=O)C6=O)C4)CC3)cc2F)N1CC(F)F (stereo partly drawn) [A119] | 7.71 | 12% | 66% | 51% | 73%
8 | O=C1CCC(N2Cc3c(ccc4c3OCC43CCN(C4CCN(S(=O)(=O)C5CCN(c6ccc([C@@H]7c8ccc(O)cc8CC[C@@H]7c7ccccc7)cc6)CC5)CC4)CC3)C2=O)C(=O)N1 (stereo partly drawn) [A122] | 4.83 | 40% | 51% | 56% | 65%
9 | O=C1CCC(N2Cc3c(ccc4c3OCC43CCN(C(=O)CC4CCN(c5ccc([C@@H]6c7ccc(O)cc7CC[C@@H]6c6ccccc6)cc5)CC4)CC3)C2=O)C(=O)N1 (stereo partly drawn) [A124] | 4.25 | 18% | 20% | 52% | 52%
